Patent US20240335433A1, “CELL CYCLE SYNCHRONIZATION PROCESS” (priority 2023, published 2024)
“Also recorded” adds a separate entry of the source.

Key:
[1] = Description: Extensive studies were conducted to determine the optimal spacing between injections for C57Bl/6 mice, as differences between mouse strains might exist. […] After the 9 injections spaced apart by these times were complete, the animals were weighed over the next 10 days to determine their overall health. […]
Lewis lung carcinoma = Lewis lung carcinoma tumor growth in C57Bl/6 mice; format: in vivo, mouse; conditions: for inhibition of Lewis lung carcinoma tumor growth: Cell Cycle Therapy, IP injections every 10 hours 40 min with rest periods
Description: The Lewis Lung Carcinoma model is a commonly used tumor model for assessment of general anti-tumor activity. The cells can be grown in culture and then introduced underneath the skin on the back of syngeneic […] mice. When 1-2 million cells are introduced, tumors begin to form within 6-10 days. This is an extremely aggressive tumor, with doubling times of 3 days or less. […] In this study 2 million cells were injected underneath the skin on the mid back of the mice. The tumor was measured with calipers to determine its size. To confirm size measurements, the tumor was excised in total and weighed at the end of the experiment. All anti-tumor drug injections were intraperitoneal (IP). Mice in the range of 8-16 weeks of age were utilized, but within a given experiment, mice within the same age range were generally used for comparison. All studies were conducted under standard guidelines, and conformed to the protocol approved the Case Western Reserve and the Northeast Ohio Medical University IACUC. Weight loss was measured to determine animal health, with loss of over 20% an indication for experimental termination. Similarly, tumors were not allowed to grow beyond 15% of body weight.
The ability of a treatment regimen to block tumor growth was determined with injections of topotecan, either alone or in combination with EDU. […] In this case, the increase of tumor size was measured. […] In general, EDU injections of 0.2 ml of 9 mg/ml drug (in phosphate buffered saline) were performed. These injections involved intermittent rest periods, generally 1-2 rest periods between 4-5 EDU injections. To increase the effectiveness of EDU injections, two such injections were at times performed within a 20 min period every 10 hours 40 min.
When higher volumes were injected (0.23 ml) the rest times were increased. […] With 0.2 ml injections of topotecan ([…]), three injections were often followed by 4-5 rest periods (FIGS. 12 and 13A-C).
EDU was always injected at 9 mg/ml (0.2 ml per injection). 1-3 such injections were followed immediately, or after 1-5 rest periods, by 1-4 injections of topotecan (0.18 ml, 0.2 mg/ml).
The experiment involved 24 C57Bl/6 mice, each of which received injections of 2 million Lewis lung carcinoma cells under the skin on their backs. Three days later these animals were randomly divided into three groups. The first group received three injections of topotecan separated by the length of the cell cycle (10 hours 40 min). The three-injection set was then followed by a long rest period precisely equal to 5 cell cycle lengths; and the process was repeated (FIG. 14C). For comparison, another set of mice received a single injection at the same time each day. […] All topotecan injections were identical (0.2 ml of 0.18 mg/ml topotecan). As a control, 8 mice received 0.2 ml injections of phosphate buffered saline (PBS) at the same time as the cell cycle group. […]

mouse gut crypt cells = test: Cell cycle synchrony of gut crypt cells after repeated injections (EDU/BRDU incorporation, cyclin D1 staining); conditions: for ability to induce cell cycle synchrony in the mouse gut: EDU: high concentrations; for cell cycle synchrony of gut cells: four 10-hour injections separated by 40 hours without injection, repeated four times
Description: All experiments were performed according to separate protocols approved by IACUC committees at the following institutions: the Northeast Ohio Medical University, and Case Western Reserve University. Studies of cell cycle length were approved by the IACUC of the Cleveland State University. Recall that the proliferating cells of the small intestine are located near the basement membrane in regions termed the crypt. Cells in this region are the only cells that proliferate in the gut, with the exception of rare proliferation of support cells in the matrix of the villi. Epithelial cells in the crypt region are essentially all proliferating all the time. Consequently, they are actively labeled by a pulse of EDU to label cells in S phase. Cells not labeled with EDU are in G2-G1 phases, and are labeled with cyclin D1 (FIG. 6).
Finally, the tissue was analyzed a full 10 hours following the final topotecan injection.
As a control to the above studies, the tissues described above were stained for the expression of cyclin D1. […] Thus, upon entry into S phase the level of cyclin D1 is always reduced to near zero. It returns to high levels of expression upon entry into G2 phase, but only in cells that are actively proliferating. Therefore, an actively proliferating cell would incorporate EDU if it were in S phase, and it would express cyclin D1 if it were in any other cell cycle phase. If all the cells of a tissue either incorporate EDU or express high cyclin D1 levels, all the cells of the tissue are actively proliferating. […] Further analysis was performed at 2 hour intervals from 0 hours to 10 hours following the final topotecan injection.
Separate animals received injections of 0.20 ml of topotecan at 0.33 mg/ml, 0.20 mg/ml, or 0.12 ml of 0.20 mg/ml topotecan. Each animal was given four 10-hour injections of a given concentration, separated by 40 hours without injection; repeated four times. At 5 hours following the final topotecan injection, BRDU was injected into the animals to identify cells in S phase between the timed topotecan injection. Animals injected with BRDU were then injected again 5 hours later with EDU (10 hours after the final topotecan injection), to identify cells in S phase at the time the next successive topotecan injection would have taken place. 50 min following the EDU injection tissues were collected and analyzed.

NIH3T3 = test: Cell cycle specific toxicity in NIH3T3 cultures (clonal survival after brief drug treatment); format: cell-based
Description: The examples were performed on the contact inhibited cell line, NIH3T3. […] They must be cultured so as to never reach confluence; since, like normal cells, they stop growing when becoming confluent on the culture plate. Thus, they are plated at 60,000 to 150,000 cells per 35 mm plate, and transferred to a new plate every 2-3 days. The cells must also be limited in passage number to ensure their growth rate is rapid. The definition of low passage cells will vary from one lab to another, and the actual cell cycle length of these cells may vary, but it is critical that from one experiment to another the length of the cell cycle remains constant.
Constant killing over a broad concentration range: The drug to be tested is diluted across a broad concentration range, and placed on separate actively proliferating NIH3T3 cultures for two hours. […] The plates are then fixed, stained with crystal violet, and the number of colonies counted and compared to a mock treated culture. […] Cloning of the cells following drug treatment allows a quantitative determination of the number of surviving cells.
Serum stimulated growth: NIH3T3 cells stop growing and enter quiescence when serum is reduced in the medium to 0.3%, so long as they are at a sufficient density on the plate. […] The drug to be analyzed is added for 3 hours at various times following serum addition, and then washed off. […]

[2] = Removal of thymidine analogues from circulation (S phase labelling window after injection); conditions: mouse, in vivo
Description: These two molecules become stably incorporated into DNA during DNA replication (S phase). When either is injected into mice, it labels at high levels only those tissue cells actively replicating DNA (in S phase) at that time. Because these drugs are both rapidly removed from circulation, only cells actively replicating DNA within 1 hour of injection are labelled. If the second drug is introduced into the same animal at a later time, thereafter, it too will label only those cells in S phase at the time of the second injection. The tissues are then collected and stained for BRDU and EDU with separate fluorescence tags. The intensity of each marker is then determined by fluorescent image analysis. Fortunately, it is the characteristic of dividing cells that these two labels are incorporated most efficiently into nuclei of cells near the middle of S phase. When the two injections are separated by the length of the cell cycle, therefore, both markers will be stained at maximal levels in the same cell. The cell cycle characteristics of a tissue can then be determined by comparing results following injections separated by increasing lengths of time.

[3] = system: Lewis lung carcinoma tumors; test: Cell cycle synchrony of Lewis lung carcinoma tumor cells (EDU labeling); format: in vivo, mouse; conditions: 9 injections separated by 10 hours, tumor-bearing C57Black mice
Description: All studies of tumor killing were performed exactly as described above for studies of cell cycle synchrony. Thus, 9 injections of topotecan were separated from one another by 10 hours in C57Black mice carrying a tumor of approximately 0.5 gm. EDU was injected into three different topotecan treated animals at 1 hour, 5 hour or 10 hours as a marker for DNA synthesis. A control tumor-bearing mouse received mock injections and was injected with EDU 5 hours after the final injection. […] together with normal gut tissue was collected and analyzed.

[4] = remark: listed apart in the source
Description: Analyses began with approximately 10% of the LD50 concentration. It was then escalated until overall toxicity to the animals was observed. The final concentration of topotecan injected was 0.33 mg/ml-0.2 mg/ml; 0.05-0.27 ml per injection (depending on the mouse strain and weight of the mouse). Following determination of general topotecan toxicity following multiple injections, it was necessary to determine if, as predicted, injections spaced apart by the length of the cell cycle would be less harmful to the animals.
[…] […] […] Thus, 9 injections at 8 hours, or 9 injections at 12 hours, 14 hours, 16 hours or 20 hours were performed, and the effect of these upon the animals determined. The 8 hour time was selected to definitely be shorter than the cell cycle, and 20 hours to be longer than the cell cycle, so that negative controls would be built into the protocol.

DNA synthesis = test: Rate of DNA synthesis after topotecan (observation of the inventor)
Description: Topotecan treatments would be removed and followed at various times thereafter with an BRDU treatment.

[5] = injections every 24 hours for up to 20 days

With C#Cc1cn([C@H]2C[C@H](O)[C@@H](CO)O2)c(=O)[nH]c1=O [EDU, 5-Ethynyl-2′-deoxyuridine] the toxicity to animals ([1]; EDU injections) was “not highly toxic to animals”, the “inhibition of Lewis lung carcinoma tumor growth” value (Lewis lung carcinoma) was “reduction in tumor growth; also recorded: highly efficient in blocking tumor growth” and the “ability to induce cell cycle synchrony in the mouse gut” value (mouse gut crypt cells) was “shown to induce cell cycle synchrony”.
In the case of COc1cc([C@@H]2c3cc4c(cc3[C@@H](O[C@@H]3O[C@@H]5CO[C@@H](C)O[C@H]5[C@H](O)[C@H]3O)[C@H]3COC(=O)[C@H]23)OCO4)cc(OC)c1O [Etoposide], the “width of concentration range selectively toxic for S phase cells” value (NIH3T3) is reported as 10 fold.
For O=c1[nH]c(=O)n([C@H]2C[C@H](O)[C@@H](CO)O2)cc1Br [BRDU, Bromodeoxyuridine], the “time after injection within which replicating cells are labelled (rapid removal from circulation)” value [2] was ≤ 1 h.
In the case of N.N.[Cl][Pt][Cl] [cisplatin], the “delay of tumor formation” value (Lewis lung carcinoma; daily injections) is reported as “less than 3 days” and the “cell cycle synchrony of injected animals' cells” value (mouse gut crypt cells; repeated injections, any time between injections) is reported as “at no time were the cisplatin injected cells synchronous”.
With CC[C@@]1(O)C(=O)OCc2c1cc1n(c2=O)Cc2cc3c(CN(C)C)c(O)ccc3nc2-1 [topotecan] the “injection spacing best tolerated” value ([1]; 9 injections, spacings 9 h 30 min to 11 h 20 min, weight over next 10 days, C57Bl/6 mice) was 10 hours 40 minutes, the “percent weight loss, injections separated by cell cycle length compared to daily injections” value ([1]; mouse, in vivo) was “dramatically reduced” and the “toxicity on continued injections” value ([1]; mouse, in vivo) was “without developing significant toxicity”. For the same compound, the “inhibition of tumor appearance, longer than in untreated animals” value (Lewis lung carcinoma; Cell Cycle Therapy with injections every 10 hours 40 minutes and rest periods) was 7 to 12 days, the “inhibition of Lewis lung carcinoma tumor growth” value (Lewis lung carcinoma) was “dramatically inhibited; also recorded: highly efficient in blocking tumor growth” and the “tumor growth compared to the control group” value (Lewis lung carcinoma; FIG. 14B, both topotecan treatments (Cell Cycle and Daily)) was “dramatic decreases in tumor growth”. The “reduction of tumor size” value (Lewis lung carcinoma; Lewis lung carcinoma, any treatment protocol tested) was “never been found in these studies to reduce tumor size”, the “average tumor size relative to PBS treated animals” value (Lewis lung carcinoma; either protocol (Cell Cycle or daily), 9.5 days) was “¼” and the tumor killing (Lewis lung carcinoma; [5]) was “tumor killing was enhanced”. For the same compound, the “cell cycle synchrony of tumor cells (EDU labeling at 1, 5, 10 hours)” value [3] was “had not been synchronized”, the “total amount of drug tolerated by the animals” value ([4]; 4 injections every 10 hours separated by 40 hours without injection) was “increased” and the “ability of animals to survive repeated injections” value ([4]; 9 injections at 8, 12, 14, 16 or 20 hours between injections) was “had to be euthanized”. The “cell cycle synchrony of gut epithelial cells” value (mouse gut crypt cells; 9 injections every 10 hours) was “complete cell cycle synchrony”, the “cell cycle phase / EDU incorporation of crypt cells” value (mouse gut crypt cells; 9 injections every 10 hours, 4 to 8 hours following the final injection) was “in S phase; also recorded: high levels of EDU incorporation” and the “cell cycle phase / EDU incorporation of crypt cells” value (mouse gut crypt cells; 9 injections every 10 hours, 2 hours and 10 hours following the final injection) was “low levels of EDU incorporation; also recorded: not synthesizing DNA”. For the same compound, the “cyclin D1 expression in crypt cells” value (mouse gut crypt cells; 9 injections every 10 hours, 5 hours after the final injection) was “greatly reduced proportion of the cells”, the “gut cells in S phase (EDU incorporation)” value (mouse gut crypt cells; 9 injections every 10 hours, 5 hours following the final injection) was “essentially all the cells were in S phase; also recorded: efficiently labeled with EDU” and the “gut cells in S phase (EDU incorporation)” value (mouse gut crypt cells; 9 injections every 10 hours, 10 hours following the final injection) was “none of the cells were in S phase; also recorded: very little EDU labeling”. For the same compound, the “cyclin D1 expression in crypt cells” value (mouse gut crypt cells; 9 injections every 10 hours, immediately after or 10 hours following the final injection) was “expressed at high levels”, the “gut cells in S phase (EDU incorporation)” value (mouse gut crypt cells; 9 injections every 10 hours, immediately following the final injection) was “no cells were in S phase” and the “gut morphology, EDU incorporation and synchrony of crypt cells” value (mouse gut crypt cells; 9 injections separated by 9 hours) was “unhealthy gut morphology and few gut cells able to incorporate EDU; also recorded: no evidence of cell cycle synchrony”. The “cell cycle synchrony of normal gut cells in tumor-bearing animals” value (mouse gut crypt cells; 9 injections separated by 10 hours, C57Black mice with Lewis lung carcinoma) was “induced cell cycle synchrony; also recorded: have been synchronized”, the “synchronization of gut tissues” value (mouse gut crypt cells; 9 injections separated by times other than every 10 hours) was “In no case were the tissues synchronized” and the “ability to induce cell cycle synchrony in the mouse gut” value (mouse gut crypt cells) was “shown to induce cell cycle synchrony”. For the same compound, the “cell cycle synchrony of gut cells” value (mouse gut crypt cells; 0.20 ml of 0.33 mg/ml or 0.20 mg/ml) was “almost complete”, the “cell cycle synchrony of gut cells” value (mouse gut crypt cells; injected concentration 0.12 mg/ml) was “very little if any synchrony” and the “cell cycle synchrony of the gut” value (mouse gut crypt cells; [5]) was “cell cycle synchrony of the gut was observed”. The “crypt cell division interval” value (mouse gut crypt cells; [5]) was 12 h, the “toxicity to gut tissue” value (mouse gut crypt cells; mouse, in vivo) was “Even greater toxicity” and the “effect on rate of DNA synthesis” value (DNA synthesis) was “dramatically reduces the rate of DNA synthesis”.
